From ChEMBL document CHEMBL4251553, “Synthesis, anticancer evaluation and pharmacokinetic study of novel 10-O-phenyl ethers of dihydroartemisinin” (Eur J Med Chem, 2017)
Active and inactive are the calls of the source. The rule behind the calls is not given here.

Key:
[1] = AUC (0 to infinity) in Sprague-Dawley rat at 10 mg/kg, iv administered as single dose by LC-MS/MS analysis; format: ADME, organism-based; set-up: dose 10 mg/kg, route intravenous, time infinity; conditions: in vivo
NCI/ADR-RES [2] = experiment: Effect on P-gp protein expression in human MCF7/ADR cells at 0.05 to 0.1 uM after 24 to 48 hrs by Western blot analysis; format: functional, cell-based
MCF7 [3] = experiment: Cell cycle arrest in human MCF7 cells assessed as accumulation at sub-G1 phase at 1 uM after 24 hrs by propidium iodide staining based flow cytometry (reference value: 1.78%); format: functional
MCF7 [4] = experiment: Cell cycle arrest in human MCF7 cells assessed as accumulation at G2/M phase at 1 uM after 24 hrs by propidium iodide staining based flow cytometry (reference value: 22.57%); format: functional
[5] = AUC (0 to t) in Sprague-Dawley rat at 10 mg/kg, iv administered as single dose by LC-MS/MS analysis; format: ADME, organism-based; conditions: in vivo
[6] = Plasma concentration in Sprague-Dawley rat at 10 mg/kg, iv administered as single dose measured at 0.083 hrs post dosing by LC-MS/MS analysis; format: ADME, organism-based
MCF7 [7] = experiment: Cell cycle arrest in human MCF7 cells assessed as accumulation at sub-G1 phase at 1 uM after 48 hrs by propidium iodide staining based flow cytometry (reference value: 0.18%); format: functional
MCF7 [8] = experiment: Cell cycle arrest in human MCF7 cells assessed as accumulation at S-phase at 0.5 uM after 48 hrs by propidium iodide staining based flow cytometry (reference value: 18.39%); format: functional
NCI/ADR-RES [9] = experiment: Cell cycle arrest in human MCF7/ADR cells assessed as accumulation at G2/M phase at 0.5 uM after 48 hrs by propidium iodide staining based flow cytometry (reference value: 31.94%); format: functional
[10] = Cmax in Sprague-Dawley rat at 10 mg/kg, iv administered as single dose by LC-MS/MS analysis; format: ADME, organism-based; set-up: dose 10 mg/kg, route intravenous; conditions: in vivo
[11] = Plasma concentration in Sprague-Dawley rat at 10 mg/kg, iv administered as single dose measured at 8 hrs post dosing by LC-MS/MS analysis; format: ADME, organism-based
NCI/ADR-RES [12] = experiment: Cell cycle arrest in human MCF7/ADR cells assessed as accumulation at G2/M phase at 0.5 uM after 24 hrs by propidium iodide staining based flow cytometry (reference value: 27.75%); format: functional
NCI/ADR-RES [13] = experiment: Cell cycle arrest in human MCF7/ADR cells assessed as accumulation at G0/G1 phase at 1 uM after 24 hrs by propidium iodide staining based flow cytometry (reference value: 45.98%); format: functional
[14] = Plasma concentration in Sprague-Dawley rat at 10 mg/kg, iv administered as single dose measured at 0.5 hrs post dosing by LC-MS/MS analysis; format: ADME, organism-based
NCI/ADR-RES [15] = experiment: Downregulation of Cyclin-D1 protein expression in human MCF7/ADR cells at 0.05 to 0.1 uM after 24 to 48 hrs by Western blot analysis; format: functional, cell-based
MCF7 [16] = experiment: Cell cycle arrest in human MCF7 cells assessed as accumulation at S-phase at 0.5 uM after 24 hrs by propidium iodide staining based flow cytometry (reference value: 18.24%); format: functional

C[C@H]1[C@@H](Oc2ccc(-c3cc(-c4ccccc4)[nH]n3)cc2)O[C@@H]2O[C@@]3(C)CC[C@H]4[C@H](C)CC[C@@H]1[C@@]24OO3
AUC(0-inf) [1]: 2920 ng·h/mL | Activity (NCI/ADR-RES [2]): inactive | Activity (MCF7 [3]): 0.56% | Activity (MCF7 [4]): 16.98% | AUC(0-t) [5]: 2910 ng·h/mL | concentration at 0.083 h [6]: 4460 ng/mL | Activity (MCF7 [7]): 1.44% | Activity (MCF7 [8]): 3.87% | Activity (NCI/ADR-RES [9]): 30.15% | Cmax [10]: 4460 ng/mL | concentration at 8 h [11]: 34.1 ng/mL | Activity (NCI/ADR-RES [12]): 26.29% | Activity (NCI/ADR-RES [13]): 61.78% | concentration at 0.5 h [14]: 583 ng/mL | Activity (NCI/ADR-RES [15]): inactive | Activity (MCF7 [16]): 11.95%
